The values that follow are results of earlier work, collected in US20150190345A1, “Controlled Release Formulations of Lorazepam” (priority 2014, published 2015).

The conditions of data set [1]: according to the package insert.

With `O=C1Nc2ccc(Cl)cc2C(c2ccccc2Cl)=NC1O` (centres unmarked) [Lorazepam, 7-chloro-5-(2-chlorophenyl)-1,3-dihydro-3-hydroxy-2H-1,4-benzodiazepin-2-one], the solubility in water result is on record as “almost insoluble in water”. Also, the “half-life in human plasma” value in data set [1] is recorded as “about 12 hours”.
